Format in all cases: cell-based
Assay [1] concerns second HEK293 cell line. As to the kind of experiment: AAV productivity at different DMSO concentrations, shake flasks. The procedure:
(§1) Cell transfection was performed generally as described in Grieger et al. (2016) Molecular Therapy 24(2): 287-297. Briefly, transfection mixes were prepared by mixing calculated volumes of vector(s), transfection media, and polyethylenimine (PEI), all at ambient temperature, and allowed to equilibrate before the transfection mixes were added to the cells. Post-transfection bioreactor setpoint shifts were performed 2 hours post-transfection, and cells were harvested 72 hours post-transfection. Harvested cells were lysed as described in Grieger et al. (2016) Molecular Therapy 24(2): 287-297. Crude lysate samples were collected following centrifugation to remove cellular debris. Productivity was measured by vector genome titer and capsid yield. Vector genome (VG) titer was determined by droplet digital PCR (ddPCR) by standard methods using primer/probe sets specific to the transgene payload of the vector comprising the transgene. Capsid yield was determined using enzyme-linked immunosorbent assays (ELISAs) by standard methods with an immobilized antibody directed against an epitope of the capsid as encoded by the vector comprising the capsid sequences. Percentage of intact vector genomes (% Full capsids) was calculated by dividing the vector genome productivity determined by ddPCR by the number of capsids determined by ELISA.
The conditions of DMSO supplementation were further tested using different representative AAV particles. Experiments were performed with a second HEK293 cell line according to the methods described in Example 1 using shake flasks.
AAV productivity, in terms of vector genome (VG) titer (FIGS. 9A and 10A), capsid yield (FIGS. 9B and 10B), and percent intact vector genomes (% Full; FIGS. 9C and 10C), was measured as described in Example 1.

In assay [2] the test system is second HEK293 cell line. The assay is described as follows: AAV productivity with DMSO supplementation 30-120 minutes post-transfection, 3 L single-use bioreactors. The following applies: DMSO 120 minutes vs 30 minutes post-transfection, pH 7.0, 39° C. As for the experimental part: as §1
Based on the findings above, the effects of post-transfection pH, and the effect of supplementing the culture media with DMSO at 30-120 minutes post-transfection were further tested using a different representative AAV particle. Experiments were performed with a second HEK293 cell line according to the methods described in Examples 1 and 5 using 3 L single-use bioreactors.
AAV productivity, in terms of vector genome (VG) titer (FIG. 8A), capsid yield (FIG. 8B), and percent intact vector genomes (% Full; FIG. 8C), was measured as described in Example 1.

For assay [3], the system named is AAV producer cells (HEK293 cells). As to the kind of experiment: DMSO time course analysis of AAV productivity. The following applies: 1.5% (v/v) DMSO added two hours pre-transfection and up to 30 minutes post-transfection; compared to the other time points tested. As for the experimental part:
For each parameter tested, HEK293 cells were expanded by shake flask culture with a target seed density of >0.25E6 viable cells/mL and a target final density of <6E6 viable cells/mL. Expanded cells were inoculated into an Applikon 3 L Glass Bioreactor containing the appropriate amount of cell culture medium prior to transfection at a 2 L working volume.
as §1, with “Post-transfection bioreactor setpoint shifts were performed 2 hours post-transfection, and cells were harvested 72 hours post-transfection. Harvested cells were lysed as described in Grieger et al. (2016) Molecular Therapy 24(2): 287-297. Crude lysate samples were collected following centrifugation to remove cellular debris.” left out, “ELISA. […]” for “ELISA.”

For assay [4] the test system is unchanged. As to the kind of experiment: AAV productivity with culture media additives supplemented two hours post-transfection (shake flasks). As for the experimental part:
For each parameter tested, HEK293 cells were expanded by shake flask culture with a target seed density of >0.25E6 viable cells/mL and a target final density of <6E6 viable cells/mL. […]
as §1, with “Harvested cells were lysed as described in Grieger et al. (2016) Molecular Therapy 24(2): 287-297. Crude lysate samples were collected following centrifugation to remove cellular debris.” left out, “ELISA. […]” for “ELISA.”

Take `C[S+](C)[O-]` [DMSO, dimethyl sulfoxide]: the VG titer result is “increased” in assay [1] (FIG. 9A, 0.5% to 2.25% DMSO two hours post-transfection, up to a DMSO concentration of 1.5%); “increased” in assay [1] (FIG. 10A, 0.75% DMSO two hours post-transfection compared with 0% DMSO); “comparable” in assay [1] (FIG. 10A, 1.5% DMSO two hours post-transfection compared with 0.75% DMSO); “general increase” in assay [4] (additive added two hours post-transfection, all tested concentrations (Table 5), over control conditions without additive, ddPCR, crude lysate). Besides, the capsid titer entry in assay [1] (FIG. 9B, 0.5% to 2.25% DMSO two hours post-transfection, up to a DMSO concentration of 1.5%) was “increased or comparable”; in assay [1] (FIG. 10B, 0.75% DMSO two hours post-transfection compared with 0% DMSO), “increased”; in assay [1] (FIG. 10B, 1.5% DMSO two hours post-transfection compared with 0.75% DMSO), “decreased”. The percent full capsids result in assay [1] (FIG. 9C, 0.5% to 2.25% DMSO two hours post-transfection) is recorded as “increased”; in assay [1] (FIG. 10C, 0.75% DMSO two hours post-transfection compared with 0% DMSO), “comparable”; in assay [1] (FIG. 10C, 1.5% DMSO two hours post-transfection compared with 0.75% DMSO), “increased”; in assay [4] (DMSO added two hours post-transfection, compared to the other additives) it was “higher percent full capsids”. Also, in assay [2], the VG titers result was “similar”. In addition, the capsid yields result in assay [2] is given as “similar”. For the same compound, the intact vector genomes entry in assay [2] is reported as “similar”. For the same compound, the “percent yield of full capsids” value in assay [3] is given as “higher percent yield of full capsids”.

Source of the values: US20230279433A1, “METHODS AND COMPOSITIONS FOR THE PRODUCTION OF ADENO-ASSOCIATED VIRUS” (priority 2021, published 2023).
